Data from US8987195B2 (priority 2012, dated 2015).
Like-named read-outs stand apart in the source and are kept apart here.

How the values were obtained:
[1] = system: HCV genotype 1b replicon; assay: HCV replicon assay, genotype 1b replicon EC50; format: cell-based, Hepatitis C virus; conditions: Hepatitis C virus, genotype 1b replicon, read-out: EC50 [gt-1b]
Summary of the method: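 Assay format: compound titration on stable replicon cells, no G418 during treatment, 24 to 48 hours. Lysates were assayed for replicon RNA (hybridization/protection or TaqMan) or luciferase; EC50 fitted to four parameters against DMSO.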

[2] = biological target: HCV NS3/4A protease A156T mutant (Hepatitis C virus genotype 1b, UniProt P26663, A1182T); assay: HCV NS3/4A protease time-resolved fluorescence (TRF) assay, Ki against A156T mutant; format: biochemical
Protocol: (§1) Measuring NS3/4A Inhibitory Activity (Ki) Against Genotype 1b, Against A156T Mutants and Against Genotype 3a
(§2) One assay for measuring inhibitory activity is HCV NS3 protease time-resolved fluorescence (TRF) assay as described below and in Mao et al., Anal. Biochem. 373:1-8, 2008 and International Patent Application Publication WO 2006/102087. A NS3 protease assay can be performed, for example, in a final volume of 20 μl assay buffer containing 50 mM HEPES, pH 7.5, 150 mM NaCl, 15% glycerol, 0.15% TRITON X-100, 10 mM DTT, and 0.1% PEG 8000. NS3 and NS4A protease is pre-incubated with various concentrations of inhibitors in DMSO for 30 min. The reaction is initiated by adding the TRF peptide substrate (final concentration 25 nM). NS3 mediated hydrolysis of the substrate was run for 2.5 hours at room temperature. Product fluorescence is detected using A Pherastar Plus plate reader (BMG) or Envision (Perkin Elmer Life and Analytical Sciences with excitation at 340 nm and emission at 615 nm using the appropriate delay time optimized for the europium fluorescence probe. Testing concentrations of different enzyme forms are selected to result in a signal to background ratio (S/B) of 10-30. IC50 values are derived using a standard four-parameter fit to the data. Ki values are derived from IC50 values using the following formula, IC50=Ki(1+[S]/KM), Eqn (1), where [S] is the concentration of substrate peptide in the reaction and KM is the Michaelis constant. See P. Gallinari et al., 38 BIOCHEM. 5620-32 (1999); P. Gallinari et al., 72 J. VIROL. 6758-69 (1998); M. Taliani et al., 240 ANAL. BIOCHEM. 60-67 (1996); Mao et al., Analytical Biochemistry 373: 1-8, 2008.
(§3) The assay described above was run against genotype 1b at a concentration of 0.2 nM, against A156T mutant strains at a concentration of 0.4 nM, and against genotype 3a at a concentration of 0.025 nM.

[3] = biological target: HCV NS3/4A protease genotype 1b (Hepatitis C virus genotype 1b, UniProt P26663); assay: HCV NS3/4A protease time-resolved fluorescence (TRF) assay, Ki against genotype 1b; format: biochemical
Summary of the method: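 NS3/4A enzyme was preincubated 30 min with inhibitor in 50 mM HEPES pH 7.5, 150 mM NaCl, 15% glycerol, 0.15% Triton X-100, 10 mM DTT, 0.1% PEG 8000; 25 nM europium TRF peptide substrate added, 2.5 h at room temperature. Enzyme: 0.2 nM (1b), 0.4 nM (A156T), 0.025 nM (3a). Ki from IC50 via Cheng-Prusoff.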

[4] = biological target: HCV NS3/4A protease genotype 3a (Hepatitis C virus genotype 3a, UniProt Q81495); assay: HCV NS3/4A protease time-resolved fluorescence (TRF) assay, Ki against genotype 3a; format: biochemical
Protocol: as §1, §2, §3

[5] = IC50 [gt-1b] (nM), NS3/4A genotype 1b, enzyme 0.2 nM
[6] = NS3/4A gt-1b A156T mutant, enzyme 0.4 nM, read-out: IC50 [gt-1b A156T]
[7] = NS3/4A gt-1b A156T mutant, enzyme 0.4 nM, K+ salt, read-out: IC50 [gt-1b A156T]
[8] = IC50 [gt-1b] (nM), NS3/4A genotype 1b, enzyme 0.2 nM, K+ salt

SMILES | EC50 [1] | IC50 [3, 5] | IC50 [4] | IC50 [2, 6] | EC50 ([1]; K+ salt) | IC50 [2, 7] | IC50 [3, 8] | further results
COc1ccc2nc(C(F)(F)F)c3c(c2c1)CC[C@]1(C[C@H]2C(=O)N[C@]4(C(=O)NS(=O)(=O)C5(C)CC5)C[C@H]4/C=C\CCCCC[C@H](NC(=O)OCC(C)C)C(=O)N2C1)O3 [Example 6, Isobutyl ((2R,6S,13aS,14aR,16aS,Z)-9′-methoxy-14a-(((1-methylcyclopropyl)sulfonyl)carbamoyl)-5,16-dioxo-5′-(trifluoromethyl)-1′,2′,3,5,6,7,8,9,10,11,13a,14,14a, 15,16,16a-hexadecahydro-1H-spiro[cyclopropa[e]pyrrolo[1,2-a][1,4]diazacyclopentadecine-2,3′-pyrano[2,3-c]quinolin]-6-yl)carbamate] | 1.23 nM | 0.016 nM | 0.53 nM | – | – | – | – | IC50 [2]: 0.591 nM
CC(C)(C)OC(=O)N[C@H]1CCCCC/C=C\[C@@H]2C[C@@]2(C(=O)NS(=O)(=O)C2(C)CC2)NC(=O)[C@@H]2C[C@]3(CCc4c(c(C(F)(F)F)nc5ccc(OCCCN6CCOCC6)cc45)O3)CN2C1=O [Example 50, tert-Butyl ((2R,6S,13aS,14aR,16aS,Z)-14a-(((1-methylcyclopropyl)sulfonyl)carbamoyl)-9′-(3-morpholinopropoxy)-5,16-dioxo-5′-(trifluoromethyl)-1′,2′,3,5,6,7,8,9, 10,11,13a,14,14a,15,16,16a-hexadecahydro-1H-spiro[cyclopropa[e]pyrrolo[1,2-a][1,4]diazacyclopentadecine-2,3′-pyrano[2,3-c]quinolin]-6-yl)carbamate] | 0.284 nM | 0.01 nM | 0.0965 nM | 0.0786 nM | – | – | – | –
Cc1nc2ccccc2c2c1O[C@]1(CC2)C[C@H]2C(=O)N[C@]3(C(=O)NS(=O)(=O)C4(C)CC4)C[C@H]3/C=C\CCCCC[C@H](NC(=O)OC(C)(C)C)C(=O)N2C1 [Example 74, tert-butyl [(2R,6S,12Z,13aS,14aR,16aS)-5′-methyl-14a-{[(1-methylcyclopropyl)sulfonyl]carbamoyl}-5,16-dioxo-1,1′,2′,5,6,7,8,9,10,11,13a,14,14a,15,16,16a-hexadecahydrospiro[cyclopropa[e]pyrrolo[1,2-a][1,4]diazacyclopentadecine-2,3′-pyrano[2,3-c]quinolin]-6-yl]carbamate] | 2.48 nM | 0.008 nM | 0.572 nM | 0.124 nM | – | – | – | –
Cc1nc2ccc(Cl)cc2c2c1O[C@]1(CC2)C[C@H]2C(=O)N[C@]3(C(=O)NS(=O)(=O)C4(C)CC4)C[C@H]3/C=C\CCCCC[C@H](NC(=O)OCC(C)C)C(=O)N2C1 [Example 189, 2-methylpropyl [(2R,6S,12Z,13aS,14aR,16aS)-9′-chloro-5′-methyl-14a-{[(1-methylcyclopropyl)sulfonyl]carbamoyl}-5,16-dioxo-1,1′,2′,5,6,7,8,9,10,11,13a,14,14a,15,16,16a-hexadecahydrospiro[cyclopropa[e]pyrrolo[1,2-a][1,4]diazacyclopentadecine-2,3′-pyrano[2,3-c]quinolin]-6-yl]carbamate] | – | – | 0.394 nM | – | 6.42 nM | 0.062 nM | 0.002 nM | –
Cc1nc2cc(F)c(F)cc2c2c1O[C@]1(CC2)C[C@H]2C(=O)N[C@]3(C(=O)NS(=O)(=O)C4(C)CC4)C[C@H]3/C=C\CCCCC[C@H](NC(=O)OC(C)C)C(=O)N2C1 [Example 194, propan-2-yl [(2R,6S,12Z,13aS,14aR,16aS)-8′,9′-difluoro-5′-methyl-14a-{[(1-methylcyclopropyl)sulfonyl]carbamoyl}-5,16-dioxo-1,1′,2′,5,6,7,8,9,10,11,13a,14,14a,15,16,16a-hexadecahydrospiro[cyclopropa[e]pyrrolo[1,2-a][1,4]diazacyclopentadecine-2,3′-pyrano[2,3-c]quinolin]-6-yl]carbamate] | – | – | 0.994 nM | – | 8.28 nM | 0.0541 nM | 0.007 nM | –
Cc1nc2cc(F)c(F)cc2c2c1O[C@]1(CC2)C[C@H]2C(=O)N[C@]3(C(=O)NS(=O)(=O)C4(C)CC4)C[C@H]3/C=C\CCCCC[C@H](NC(=O)OC3(C)CC3)C(=O)N2C1 [Example 195, 1-methylcyclopropyl [(2R,6S,12Z,13aS,14aR,16aS)-8′,9′-difluoro-5′-methyl-14a-{[(1-methylcyclopropyl)sulfonyl]carbamoyl}-5,16-dioxo-1,1′,2′,5,6,7,8,9,10,11,13a,14,14a,15,16,16a-hexadecahydrospiro[cyclopropa[e]pyrrolo[1,2-a][1,4]diazacyclopentadecine-2,3′-pyrano[2,3-c]quinolin]-6-yl]carbamate] | – | – | 1.73 nM | – | 8.67 nM | 0.134 nM | 0.01 nM | –
COc1ccc2nc(C)c3c(c2c1)CC[C@]1(C[C@H]2C(=O)N[C@]4(C(=O)NS(=O)(=O)C5(C)CC5)C[C@H]4/C=C\CCCCC[C@H](NC(=O)OC4(C)COC4)C(=O)N2C1)O3 [Example 198, 3-methyloxetan-3-yl [(2R,6S,12Z,13aS,14aR,16aS)-9′-methoxy-5′-methyl-14a-{[(1-methylcyclopropyl)sulfonyl]carbamoyl}-5,16-dioxo-1,1′,2′,5,6,7,8,9,10,11,13a,14,14a,15,16,16a-hexadecahydrospiro[cyclopropa[e]pyrrolo[1,2-a][1,4]diazacyclopentadecine-2,3′-pyrano[2,3-c]quinolin]-6-yl]carbamate] | 9.19 nM | 0.006 nM | 0.561 nM | 0.104 nM | – | – | – | –
COCCCOc1ccc2nc(C(F)(F)F)c3c(c2c1)CC[C@]1(C[C@H]2C(=O)N[C@]4(C(=O)NS(=O)(=O)C5(C)CC5)C[C@H]4/C=C\CCCCC[C@H](NC(=O)OC4(C)CCC4)C(=O)N2C1)O3 [Example 522, 1-methylcyclobutyl [(2R,6S,12Z,13aS,14aR,16aS)-9′-(3-methoxypropoxy)-14a-{[(1-methylcyclopropyl)sulfonyl]carbamoyl}-5,16-dioxo-5′-(trifluoromethyl)-1,1′,2′,5,6,7,8,9,10,11,13a,14,14a,15,16,16a-hexadecahydrospiro[cyclopropa[e]pyrrolo[1,2-a][1,4]diazacyclopentadecine-2,3′-pyrano[2,3-c]quinolin]-6-yl]carbamate] | – | – | 0.311 nM | – | – | – | – | IC50 ([2]; NS3/4A protease TRF assay, A156T mutant enzyme 0.4 nM, K+ salt, read-out: IC50 [gt-1b A156T]): 0.281 nM; IC50 ([3]; IC50 [gt-1b], NS3/4A protease TRF assay, genotype 1b enzyme 0.2 nM, K+ salt): 0.005 nM
COc1ccc2nc(C(F)F)c3c(c2n1)CC[C@]1(C[C@H]2C(=O)N[C@]4(C(=O)NS(=O)(=O)C5(C)CC5)C[C@H]4/C=C\CCCCC[C@H](NC(=O)O[C@@H]4C[C@@H]5C[C@@H]5C4)C(=O)N2C1)O3 [Example 524, (1R,3r,5S)-bicyclo[3.1.0]hex-3-yl [(2R,6S,12Z,13aS,14aR,16aS)-6′-(difluoromethyl)-2′-methoxy-14a-{[(1-methylcyclopropyl)sulfonyl]carbamoyl}-5,16-dioxo-1,5,6,7,8,9,9′,10,10′,11,13a,14,14a,15,16,16a-hexadecahydrospiro[cyclopropa[e]pyrrolo[1,2-a][1,4]diazacyclopentadecine-2,8′-pyrano[2,3-c][1,5]naphthyridin]-6-yl]carbamate] | – | – | 0.109 nM | – | – | – | – | IC50 ([2]; NS3/4A protease TRF assay, A156T mutant enzyme 0.4 nM, read-out: IC50 [gt-1b A156T]): 0.182 nM; IC50 ([3]; IC50 [gt-1b], NS3/4A protease TRF assay, genotype 1b enzyme 0.2 nM): 0.003 nM
